ChEMBL document CHEMBL1151500, “Inhibition of calpain by peptidyl heterocycles” (Bioorg Med Chem Lett, 1996)

The molecules below were run against T1, Calpain-1 catalytic subunit (Homo sapiens) (UniProt P07384) (assay: Inhibitory activity against human recombinant Calpain 1 at a concentration of 10 uM).
T1 sequence (whole entry): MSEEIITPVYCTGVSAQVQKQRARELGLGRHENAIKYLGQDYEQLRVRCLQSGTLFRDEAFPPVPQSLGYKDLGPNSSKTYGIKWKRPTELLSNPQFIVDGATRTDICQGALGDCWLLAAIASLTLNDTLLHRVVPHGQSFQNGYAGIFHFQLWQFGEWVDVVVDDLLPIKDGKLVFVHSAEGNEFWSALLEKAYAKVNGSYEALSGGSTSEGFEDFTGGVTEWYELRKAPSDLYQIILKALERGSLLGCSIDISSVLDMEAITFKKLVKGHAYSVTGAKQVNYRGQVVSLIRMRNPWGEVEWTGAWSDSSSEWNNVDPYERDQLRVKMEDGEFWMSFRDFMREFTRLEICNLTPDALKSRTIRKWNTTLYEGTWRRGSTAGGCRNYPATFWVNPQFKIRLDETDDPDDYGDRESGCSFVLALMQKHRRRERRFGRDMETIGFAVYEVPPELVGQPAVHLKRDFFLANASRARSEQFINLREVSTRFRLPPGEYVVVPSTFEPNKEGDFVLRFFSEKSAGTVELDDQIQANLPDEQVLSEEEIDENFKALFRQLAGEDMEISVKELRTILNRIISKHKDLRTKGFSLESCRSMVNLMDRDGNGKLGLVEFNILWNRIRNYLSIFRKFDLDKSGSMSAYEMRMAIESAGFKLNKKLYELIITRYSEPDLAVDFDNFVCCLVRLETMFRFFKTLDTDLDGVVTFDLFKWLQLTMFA

| inhibition | Compound |
| --- | --- |
| 0% | CC(C)C[C@H](NC(=O)OCc1ccccc1)C(=O)N[C@@H](CC(C)C)C(=O)c1nccn1COCC[Si](C)(C)C |
| 39% | CC(C)C[C@H](NC(=O)OCc1ccccc1)C(=O)N[C@@H](CC(C)C)C(=O)c1nccn1Cc1ccccc1 |
| 77% | CC(C)C[C@H](NC(=O)OC(C)(C)C)C(=O)N[C@@H](CC(C)C)C(=O)c1ncc[nH]1 |
| 11% | CC(C)C[C@H](NC(=O)OCc1ccccc1)C(=O)N[C@@H](CC(C)C)C(=O)C1N=NN=N1 |
| 0% | CC(C)C[C@H](NC(=O)OCc1ccccc1)C(=O)N[C@@H](CC(C)C)C(=O)c1ncc[nH]1 |
| 54% | CC(C)C[C@H](NC(=O)OCc1ccccc1)C(=O)N[C@@H](CC(C)C)C(=O)N[C@@H](Cc1ccccc1)C(=O)c1nccs1 |
